# Assay results from patent US8952024B2, “Herbicidal pyrimidone derivatives” (E I du Pont de Nemours and Company, priority 2009, dated 2015).
# Where two headings read alike, the source gives them in different places.
# What was measured:
# Test in all cases: Test B pre-/postemergence plant response
# Assay type in all cases: in vivo
# [1] = tested on: wild oat (Avena fatua); conditions: Preemergence
# Method in brief: (§1)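 Plants treated either at seeding (loam/sand soil) or postemergence at 2 to 18 cm height, using a surfactant-containing non-phytotoxic solvent formulation. Evaluation was visual after 13 to 15 days, 0 to 100 scale relative to controls.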
# [2] = tested on: Surinam grass (Brachiaria decumbens); conditions: for pest or weed control at 31 g/ha: 31 g ai/ha; for pest or weed control at 62 g/ha: 62 g ai/ha; for pest or weed control at 125 g/ha: 125 g ai/ha
# Method in brief: as §1
# [3] = tested on: morningglory (Ipomoea coccinea); conditions: for pest or weed control at 125 g/ha: 125 g ai/ha
# Method in brief: as §1
# [4] = tested on: downy bromegrass (Bromus tectorum); conditions: for pest or weed control at 31 g/ha: 31 g ai/ha; for pest or weed control at 62 g/ha: 62 g ai/ha; for pest or weed control at 125 g/ha: 125 g ai/ha
# Method in brief: as §1
# [5] = tested on: wheat (Triticum aestivum); conditions: for plant injury at 31 g/ha: 31 g ai/ha; for plant injury at 62 g/ha: 62 g ai/ha; for plant injury at 125 g/ha: 125 g ai/ha
# Method in brief: as §1
# [6] = tested on: kochia (Kochia scoparia); conditions: for pest or weed control at 31 g/ha: 31 g ai/ha; for pest or weed control at 62 g/ha: 62 g ai/ha; for pest or weed control at 125 g/ha: 125 g ai/ha
# Method in brief: as §1
# [7] = tested on: ragweed (common ragweed, Ambrosia elatior); conditions: for pest or weed control at 31 g/ha: 31 g ai/ha; for pest or weed control at 62 g/ha: 62 g ai/ha; for pest or weed control at 125 g/ha: 125 g ai/ha
# Method in brief: as §1
# [8] = Preemergence, 250 g ai/ha, 0 to 100 scale
# [9] = Urochloa decumbens, pre-emergence, Preemergence, scale 0 to 100 (0 no effect, 100 complete control), read-out: Plant response rating, Surinam Grass
# [10] = Bromus tectorum, pre-emergence, Preemergence, scale 0 to 100 (0 no effect, 100 complete control), read-out: Plant response rating, Bromegrass, Downy
# [11] = Triticum aestivum, pre-emergence, Preemergence, scale 0 to 100 (0 no effect, 100 complete control), read-out: Plant response rating, Wheat
# [12] = Bassia scoparia, pre-emergence, Preemergence, scale 0 to 100 (0 no effect, 100 complete control), read-out: Plant response rating, Kochia
# [13] = Ambrosia artemisiifolia, pre-emergence, 360 h, Preemergence, scale 0 to 100 (0 no effect, 100 complete control), read-out: Plant response rating, Ragweed
structure (smiles),measurement,setting,value
"COCCn1c(-c2cc(F)cc(F)c2)ncc(C(=O)C2=C(O)C3CCC(C3)C2=O)c1=O (stereo not shown) [Compound 243, 2-(3,5-difluorophenyl)-5-[(2-hydroxy-4-oxobicyclo[3.2.1]oct-2-en-3-yl)carbonyl]-3-(2-methoxyethyl)-4(3H)-pyrimidinone]",pest or weed control at 62 g/ha,"[1]; Avena fatua, pre-emergence, 62 g ai/ha, scale 0 to 100 (0 no effect, 100 complete control), read-out: Plant response rating, Oat, Wild",85%
same,pest or weed control at 125 g/ha,"[1]; Avena fatua, pre-emergence, 125 g ai/ha, scale 0 to 100, 0 no effect, 100 complete control, read-out: Plant response rating, Oat, Wild",85%
same,"Oat, Wild plant response rating","[1]; 250 g ai/ha, 0 to 100 scale",90
same,Surinam Grass plant response rating,[2]; [8],100
same,pest or weed control at 31 g/ha,"[2]; Urochloa decumbens, post-emergence, Postemergence, 0 to 100 scale (0 no effect, 100 complete control), read-out: Plant response rating, Surinam Grass",90%
same,pest or weed control at 62 g/ha,"[2]; Urochloa decumbens, post-emergence, Postemergence, scale 0 to 100 (0 no effect, 100 complete control), read-out: Plant response rating, Surinam Grass",95%
same,pest or weed control at 125 g/ha,"[2]; Urochloa decumbens, post-emergence, Postemergence, scale 0 (no effect) to 100 (complete control), 13 to 15 days, read-out: Plant response rating, Surinam Grass",100%
same,pest or weed control at 250 g/ha,"[2]; Urochloa decumbens, post-emergence, Postemergence, 250 g ai/ha, scale 0 to 100 (0 no effect, 100 complete control), 13 to 15 days, read-out: Plant response rating, Surinam Grass",100%
same,pest or weed control at 31 g/ha,[2]; [9],80%
same,pest or weed control at 62 g/ha,[2]; [9],98%
same,pest or weed control at 125 g/ha,"[2]; Urochloa decumbens, pre-emergence, Preemergence, scale 0 to 100, 0 no effect, 100 complete control, read-out: Plant response rating, Surinam Grass",100%
same,pest or weed control at 31 g/ha,"[3]; Ipomoea, post-emergence, Postemergence, 31 g ai/ha, 0 to 100 scale (0 no effect, 100 complete control), read-out: Plant response rating, Morningglory",95%
same,pest or weed control at 62 g/ha,"[3]; Ipomoea, post-emergence, Postemergence, 62 g ai/ha, scale 0 to 100 (0 no effect, 100 complete control), read-out: Plant response rating, Morningglory",100%
same,pest or weed control at 125 g/ha,"[3]; Ipomoea, post-emergence, Postemergence, scale 0 (no effect) to 100 (complete control), 13 to 15 days, read-out: Plant response rating, Morningglory",100%
same,pest or weed control at 250 g/ha,"[3]; Ipomoea, post-emergence, Postemergence, 250 g ai/ha, scale 0 to 100 (0 no effect, 100 complete control), 13 to 15 days, read-out: Plant response rating, Morningglory",100%
same,pest or weed control at 125 g/ha,"[3]; Ipomoea, pre-emergence, Preemergence, scale 0 to 100, 0 no effect, 100 complete control, read-out: Plant response rating, Morningglory",98%
same,Morningglory plant response rating,[3]; [8],100
same,pest or weed control at 31 g/ha,"[4]; Bromus tectorum, post-emergence, Postemergence, 0 to 100 scale (0 no effect, 100 complete control), read-out: Plant response rating, Bromegrass, Downy",50%
same,pest or weed control at 62 g/ha,"[4]; Bromus tectorum, post-emergence, Postemergence, scale 0 to 100 (0 no effect, 100 complete control), read-out: Plant response rating, Bromegrass, Downy",70%
same,pest or weed control at 125 g/ha,"[4]; Bromus tectorum, post-emergence, Postemergence, scale 0 (no effect) to 100 (complete control), 13 to 15 days, read-out: Plant response rating, Bromegrass, Downy",95%
same,pest or weed control at 250 g/ha,"[4]; Bromus tectorum, post-emergence, Postemergence, 250 g ai/ha, scale 0 to 100 (0 no effect, 100 complete control), 13 to 15 days, read-out: Plant response rating, Bromegrass, Downy",100%
same,pest or weed control at 31 g/ha,[4]; [10],0%
same,pest or weed control at 62 g/ha,[4]; [10],40%
same,pest or weed control at 125 g/ha,"[4]; Bromus tectorum, pre-emergence, Preemergence, scale 0 to 100, 0 no effect, 100 complete control, read-out: Plant response rating, Bromegrass, Downy",60%
same,"Bromegrass, Downy plant response rating",[4]; [8],70
same,Wheat plant response rating,[5]; [8],70
same,plant injury at 31 g/ha,"[5]; Triticum aestivum, post-emergence, Postemergence, 0 to 100 scale (0 no effect, 100 complete control), read-out: Plant response rating, Wheat",85%
same,plant injury at 62 g/ha,"[5]; Triticum aestivum, post-emergence, Postemergence, scale 0 to 100 (0 no effect, 100 complete control), read-out: Plant response rating, Wheat",95%
same,plant injury at 125 g/ha,"[5]; Triticum aestivum, post-emergence, Postemergence, scale 0 (no effect) to 100 (complete control), 13 to 15 days, read-out: Plant response rating, Wheat",95%
same,plant injury at 250 g/ha,"[5]; Triticum aestivum, post-emergence, Postemergence, 250 g ai/ha, scale 0 to 100 (0 no effect, 100 complete control), 13 to 15 days, read-out: Plant response rating, Wheat",100%
same,plant injury at 31 g/ha,[5]; [11],0%
same,plant injury at 62 g/ha,[5]; [11],40%
same,plant injury at 125 g/ha,"[5]; Triticum aestivum, pre-emergence, Preemergence, scale 0 to 100, 0 no effect, 100 complete control, read-out: Plant response rating, Wheat",70%
same,pest or weed control at 31 g/ha,"[6]; Bassia scoparia, post-emergence, Postemergence, 0 to 100 scale (0 no effect, 100 complete control), read-out: Plant response rating, Kochia",85%
same,pest or weed control at 62 g/ha,"[6]; Bassia scoparia, post-emergence, Postemergence, scale 0 to 100 (0 no effect, 100 complete control), read-out: Plant response rating, Kochia",95%
same,pest or weed control at 125 g/ha,"[6]; Bassia scoparia, post-emergence, Postemergence, scale 0 (no effect) to 100 (complete control), 13 to 15 days, read-out: Plant response rating, Kochia",100%
same,pest or weed control at 250 g/ha,"[6]; Bassia scoparia, post-emergence, Postemergence, 250 g ai/ha, scale 0 to 100 (0 no effect, 100 complete control), 13 to 15 days, read-out: Plant response rating, Kochia",100%
same,pest or weed control at 31 g/ha,[6]; [12],15%
same,pest or weed control at 62 g/ha,[6]; [12],20%
same,pest or weed control at 125 g/ha,"[6]; Bassia scoparia, pre-emergence, Preemergence, scale 0 to 100, 0 no effect, 100 complete control, read-out: Plant response rating, Kochia",90%
same,Kochia plant response rating,[6]; [8],100
same,pest or weed control at 31 g/ha,"[7]; Ambrosia artemisiifolia, post-emergence, 360 h, Postemergence, 0 to 100 scale (0 no effect, 100 complete control), read-out: Plant response rating, Ragweed",90%
same,pest or weed control at 62 g/ha,"[7]; Ambrosia artemisiifolia, post-emergence, 360 h, Postemergence, scale 0 to 100 (0 no effect, 100 complete control), read-out: Plant response rating, Ragweed",95%
same,pest or weed control at 125 g/ha,"[7]; Ambrosia artemisiifolia, post-emergence, 360 h, Postemergence, scale 0 (no effect) to 100 (complete control), 13 to 15 days, read-out: Plant response rating, Ragweed",98%
same,pest or weed control at 250 g/ha,"[7]; Ambrosia artemisiifolia, post-emergence, 360 h, Postemergence, 250 g ai/ha, scale 0 to 100 (0 no effect, 100 complete control), 13 to 15 days, read-out: Plant response rating, Ragweed",100%
same,pest or weed control at 31 g/ha,[7]; [13],85%
same,pest or weed control at 62 g/ha,[7]; [13],95%
same,pest or weed control at 125 g/ha,"[7]; Ambrosia artemisiifolia, pre-emergence, 360 h, Preemergence, scale 0 to 100, 0 no effect, 100 complete control, read-out: Plant response rating, Ragweed",98%
same,Ragweed plant response rating,[7]; [8],98
